Test results from patent US20230141988A1, “PHARMACEUTICAL COMPOSITION FOR USE IN THE TREATMENT OF NEUROLOGICAL DISEASES” (Aclipse One Inc., priority 2020, published 2023).
Values joined by “and” are separate entries in the source; they are usually repeats but may differ in a detail not shown here. Equal values may be shown once. Read-outs that look alike come from different tables or passages of the source.

How the values were obtained:
[1] = Plasma and CSF pharmacokinetic study, single sublingual, oral or subcutaneous dose, male Beagle dogs; format: in vivo
Method: Animals were fed twice daily. […] Food was withheld until 4-hour post-dose.
All blood samples were collected from a peripheral vessel.
For CSF collection, a polypropylene tube was first weighted to accuracy of 0.1 mg (weight #1). CSF was collected in the tube and weighted again (weight #2). Total CSF weight was calculated by subtracting weight #1 from weight #2. Samples were kept on ice and protected from sunlight. Stabilizing agent (ascorbic acid 200 mg/mL) was added within 60 minutes in a proportion of 10% in CSF. Frozen CSF samples on dry ice were stored at −60° C. or lower until bioanalysis.
All CSF samples were added with the equal volume of plasma. […] 30 μL supernatant was then mixed with 30 μL water, vortex-mixed well and centrifuged at 4° C.
Dilution procedure description: Dilution factor as 5—An aliquot of 2 μL sample was added with 8 μL blank matrix.
The flow rate was 0.6 mL/min. The injection volume was 3 μL. The following gradient was implemented: […]

[2] = Solubility in aqueous media / aqueous buffer solutions; format: physicochemical; conditions: free base, aqueous media at various pH values
in vivo = conditions: male, C57BL/6J, mouse
Method: 9 male C57BL/6J mice following administration of a single subcutaneous dose of 4.40 mg/kg. The vehicle for the subcutaneous formulation contained “0.1% sodium metabisulfite solution”.
Male C57BL/6J mice were purchased from Si Bei Fu Laboratory Animal Technology Co. Ltd (Beijing, China). The animals were about 8 weeks old with body weights of 20-30 g on the dosing date. The animals were housed in a 12-hour light/12-hour dark cycle environment and had free access to food and water. All animals were fasted overnight and fed after 4 hours collection.
For group 1, plasma samples were collected from dorsal metatarsal vein at each time point after subcutaneous administrations.
For plasma samples, about 30 μL or 300 μL of blood samples were collected from each animal via dorsal metatarsal vein or heart. These blood samples were placed into the tubes containing K2EDTA. And centrifugation at 3000 g for 10 minutes in a 4° C. centrifuge. The completion time from collection was less than 30 min. The stabilizing agent of ascorbic acid at 200 mg/mL was added in a proportion of 10% in plasma. The plasma samples were stored in a freezer at −75±15° C. prior to analysis. The completion time from collection was less than 60 min.
For brain and CSF samples, The animals were fully exsanguinated with a rising concentration of CO2 gas prior to CSF and brain collection.
For CSF collection, incision was made by scissors on the neck of the rats to expose the foramen magnum. A syringe fitted with a venoclysis needle was used to sample the CSF, the tip of the needle was inserted into the membrane of foramen magnum about 1-2 mm, and a negative pressure was applied by pulling a stopcock a small length of the syringe to extract CSF fluids into a tube. The stopcock was further actuated to until a sufficient amount of CSF was collected. There should be no blood in the CSF fluid. A stabilizing agent of ascorbic acid at 200 mg/mL was added in a proportion of 10% in CSF.
For brain collection. Brain samples were collected at an adopted time point, and washed 3 times with cold saline, then dried with clean gauze and put into the weighed tube, quick frozen in an ice box and kept at −75±15° C. All brain samples were weighted and homogenized with phosphate buffered saline (PBS) by brain weight (g) to PBS volume (mL) ratio 1:3 before analysis. The stabilizing agent of ascorbic acid at 200 mg/mL was added in a proportion of 10% in grain homogenate. The actual concentration was the detected value multiplied by the dilution factor. Brain samples were collected at designed time point, quickly homogenized and kept at −75±15° C.
Calibration standard working solutions were prepared at concentrations of 2, 5, 10, 20, 50, 100, 500, 1000, 5000 and 10000 ng/mL by serial dilution of the standard stock solution in 50% acetonitrile in water. Quality control working solutions at concentrations of 5, 10, 500 and 8000 ng/mL were prepared by serial dilution of the standard stock solution in 50% acetonitrile in water. These QC samples were prepared on the day of analysis in the same way as calibration standards.
For plasma and brain samples, 3 μL of each calibration standard working solution (2, 5, 10, 20, 50, 100, 500, 1000, 5000 and 10000 ng/mL) was added to 30 μL of the blank C57BL/6J mouse plasma or brain homogenate (with 10% 200 mg/mL ascorbic acid) to achieve calibration standards of 0.2-1000 ng/mL (0.2, 0.5, 1, 2, 5, 10, 50, 100, 500, 1000 ng/mL) in a total volume of 33 μL. Quality Control (QC) samples at 0.5 ng/mL (low-1), 1 ng/mL (low-2), 50 ng/mL (mid), 800 ng/mL (high) for plasma were prepared independently for those used for the calibration curves. These QC samples were prepared on the day of analysis in the same way as calibration standards.

[3] = male Beagle dogs (fasted), single SL 5 mg/kg, plasma, individual dogs
[4] = male, beagle, dog, in vivo, 5 mg/kg, CSF concentration
[5] = male, beagle, dog, in vivo, 5 mg/kg, plasma concentration
[6] = male, beagle, dog, in vivo, po, 10 mg/kg, CSF concentration
[7] = male, beagle, dog, in vivo, po, 10 mg/kg, plasma concentration
[8] = male, beagle, dog, in vivo, sc, 1 mg/kg, CSF concentration
[9] = male, beagle, dog, in vivo, sc, 1 mg/kg, plasma concentration

CN1CCc2cccc3c2[C@@H]1Cc1ccc(O)c(O)c1-3
MRT inf ([1]; dog, in vivo, male Beagle dogs (fasted), single PO 10 mg/kg, plasma, individual dogs): 8.44 h
MRT inf ([1]; dog, in vivo, male Beagle dogs (fasted), single SL 5 mg/kg, CSF, mean): 3.18 h
Kp ([1]; dog, in vivo, male Beagle dogs (fasted), single SL 5 mg/kg, individual dogs, read-out: AUC Ratio (AUClast ratio of CSF to total plasma)): 0.337
AUC(0-inf) ([1]; dog, in vivo, male Beagle dogs (fasted), single SL 5 mg/kg, plasma, mean, read-out: AUCinf): 162 ng·h/mL
AUMCExtra ([1]; male Beagle dogs (fasted), single PO 10 mg/kg, plasma, individual dogs, 10 mg/kg): 31.9%
AUMCExtra ([1]; male Beagle dogs (fasted), single SL 5 mg/kg, CSF, individual dogs): 5.44% and 18.5%
AUCExtra [1, 3]: 7.39%
AUMCExtra [1, 3]: 10.7%
AUC(0-inf) ([1]; male, beagle, dog, CSF, po, 10 mg/kg, male Beagle dogs (fasted), single PO 10 mg/kg, CSF, individual dogs, read-out: AUCinf): 181 ng·h/mL
Kp ([1]; male, beagle, dog, in vivo, 5 mg/kg, AUClast ratio of CSF to total plasma): 1.08 ± 0.964
concentration at 2 h [1, 4]: 76.2 ng/mL
concentration at […] [1, 4]: 289 ng/mL
AUC(0-t) ([1]; male, beagle, dog, in vivo, 5 mg/kg, male Beagle dogs (fasted), single SL 5 mg/kg, CSF, individual dogs): 122 ng·h/mL
AUC(0-t) ([1]; male, beagle, dog, in vivo, 5 mg/kg, male Beagle dogs (fasted), single SL 5 mg/kg, CSF, mean): 162 ng·h/mL
Cmax ([1]; male, beagle, dog, in vivo, 5 mg/kg, male Beagle dogs (fasted), single SL 5 mg/kg, plasma, individual dogs, read-out: Cmax): 162 ng/mL
Cmax ([1]; male, beagle, dog, in vivo, 5 mg/kg, maximum CSF concentration (Cmax)): 126 ± 144 ng/mL
Cmax ([1]; male, beagle, dog, in vivo, 5 mg/kg, maximum plasma concentration (Cmax)): 143 ± 24 ng/mL
concentration at 0.5 h [1, 5]: 162 ng/mL
concentration at 1 h [1, 5]: 116 ng/mL
concentration at 2 h [1, 5]: 10.8 ng/mL
concentration at 4 h [1, 5]: 3.39 ng/mL
concentration at 8 h [1, 5]: 2.74 ng/mL
concentration at […] [1, 5]: 151 ng/mL
concentration at 0.5 h ([1]; male, beagle, dog, in vivo, 5 mg/kg, single SL 5 mg/kg, 0.500 h, individual animal, read-out: CSF concentration): 6.23 ng/mL
concentration at 8 h ([1]; male, beagle, dog, in vivo, 5 mg/kg, single SL 5 mg/kg, 8.00 h, individual animal, read-out: CSF concentration): 1.16 ng/mL
concentration at 24 h ([1]; male, beagle, dog, in vivo, 5 mg/kg, single SL 5 mg/kg, 24.0 h, individual animal, read-out: plasma concentration): 1.49 ng/mL
plasma concentration ([1]; male, beagle, dog, in vivo, po, 10 mg/kg, 1 h): 63.3 ng/mL
Kp ([1]; male, beagle, dog, in vivo, po, 10 mg/kg, AUC Ratio (AUClast ratio of CSF to total plasma)): 0.33
Kp ([1]; male, beagle, dog, in vivo, po, 10 mg/kg, AUClast ratio of CSF to total plasma): 0.27 ± 0.0663
concentration at 0.5 h [1, 6]: 48.5 ng/mL
concentration at 4 h [1, 6]: 8.15 ng/mL
concentration at […] [1, 6]: 24.7 ng/mL
Tmax ([1]; male, beagle, dog, in vivo, po, 10 mg/kg, Tmax): 0.5 h
Cmax ([1]; male, beagle, dog, in vivo, po, 10 mg/kg, male Beagle dogs (fasted), single PO 10 mg/kg, plasma, individual dogs, read-out: Cmax): 84.8 ng/mL
concentration at 0.5 h [1, 7]: 78 ng/mL
concentration at 1 h [1, 7]: 42.2 ng/mL
concentration at 2 h [1, 7]: 22.9 ng/mL
concentration at 4 h [1, 7]: 15.6 ng/mL
concentration at 8 h [1, 7]: 9.36 ng/mL
concentration at 24 h [1, 7]: 4.5 ng/mL
concentration at […] [1, 7]: 9.2 ng/mL
concentration at 0.5 h ([1]; male, beagle, dog, in vivo, po, 10 mg/kg, single PO 10 mg/kg, 0.500 h, individual animal, read-out: CSF concentration): 17.8 ng/mL
concentration at 4 h ([1]; male, beagle, dog, in vivo, po, 10 mg/kg, single PO 10 mg/kg, 4.00 h, individual animal, read-out: CSF concentration): 12.4 ng/mL
plasma concentration ([1]; male, beagle, dog, in vivo, sc, 1 mg/kg, 1 h): 20.7 ng/mL
plasma concentration ([1]; male, beagle, dog, in vivo, sc, 1 mg/kg, 2 h): 2.17 ng/mL
Kp ([1]; male, beagle, dog, in vivo, sc, 1 mg/kg, AUC Ratio): 0.806
AUC(0-inf) ([1]; male, beagle, dog, in vivo, sc, 1 mg/kg, AUCinf): 88.4 ± 23.8 ng·h/mL
Kp ([1]; male, beagle, dog, in vivo, sc, 1 mg/kg, AUClast ratio of CSF to total plasma): 0.964 ± 0.456
concentration at 0.033 h [1, 8]: 1.73 ng/mL
concentration at 0.5 h [1, 8]: 15.6 ng/mL
concentration at 2 h [1, 8]: 6.55 ng/mL
concentration at 8 h [1, 8]: 10.8 ng/mL
AUC(0-t) ([1]; male, beagle, dog, in vivo, sc, 1 mg/kg, CSF, single SC 1 mg/kg, individual animal): 119 ng·h/mL
Cmax ([1]; male, beagle, dog, in vivo, sc, 1 mg/kg, plasma Cmax): 110 ± 19.4 ng/mL
concentration at 0.5 h [1, 9]: 76.6 ng/mL
concentration at 1 h [1, 9]: 27.9 ng/mL
concentration at 2 h [1, 9]: 3.58 ng/mL
concentration at 4 h [1, 9]: 1.11 ng/mL
concentration at 24 h [1, 9]: 1.04 ng/mL
concentration at […] [1, 9]: 89.2 ng/mL
Cmax ([1]; male, beagle, dog, in vivo, sc, 1 mg/kg, plasma, single SC 1 mg/kg, individual animal, read-out: Cmax): 113 ng/mL
concentration at 0.033 h ([1]; male, beagle, dog, in vivo, sc, 1 mg/kg, single SC 1 mg/kg, 119 s, individual animal, read-out: CSF concentration): 22.6 ng/mL
concentration at 0.033 h ([1]; male, beagle, dog, in vivo, sc, 1 mg/kg, single SC 1 mg/kg, 119 s, mean, read-out: CSF concentration): 12.2 ng/mL
concentration at 0.5 h ([1]; male, beagle, dog, in vivo, sc, 1 mg/kg, single SC 1 mg/kg, 0.500 h, individual animal, read-out: CSF concentration): 17.8 ng/mL
concentration at 1 h ([1]; male, beagle, dog, in vivo, sc, 1 mg/kg, single SC 1 mg/kg, 1.00 h, individual animal, read-out: plasma concentration): 11.9 ng/mL
concentration at 1 h ([1]; male, beagle, dog, in vivo, sc, 1 mg/kg, single SC 1 mg/kg, 1.00 h, mean, read-out: CSF concentration): 11.6 ng/mL
concentration at 2 h ([1]; male, beagle, dog, in vivo, sc, 1 mg/kg, single SC 1 mg/kg, 2.00 h, individual animal, read-out: CSF concentration): 12.8 ng/mL
concentration at 4 h ([1]; male, beagle, dog, in vivo, sc, 1 mg/kg, single SC 1 mg/kg, 4.00 h, individual animal, read-out: CSF concentration): 10.2 ng/mL
concentration at 8 h ([1]; male, beagle, dog, in vivo, sc, 1 mg/kg, single SC 1 mg/kg, 8.00 h, individual animal, read-out: CSF concentration): 4.37 ng/mL
Kp ([1]; male, beagle, dog, in vivo, AUClast ratio of CSF to total plasma, single SC 1 mg/kg, individual animal, read-out: AUC Ratio): 1.48
AUC(0-t) ([1]; male, beagle, dog, plasma, 5 mg/kg, male Beagle dogs (fasted), single SL 5 mg/kg, individual dogs): 165 ng·h/mL
AUC(0-inf) ([1]; male, beagle, dog, plasma, 5 mg/kg, male Beagle dogs (fasted), single SL 5 mg/kg, plasma, individual dogs, read-out: AUCinf): 178 ng·h/mL
AUC(0-inf) ([1]; male, beagle, dog, plasma, sc, 1 mg/kg, plasma, single SC 1 mg/kg, individual animal, read-out: AUCinf): 115 ng·h/mL
solubility [2]: low solubilities
concentration at 0.5 h (in vivo; CSF concentration): 9.59 ng/mL
concentration at […] (in vivo; CSF concentration): 20.5 ng/mL
concentration at 0.5 h (in vivo; plasma concentration): 169 ng/mL
concentration at 1 h (in vivo; plasma concentration): 52 ng/mL
concentration at 2 h (in vivo; plasma concentration): 14.9 ng/mL
concentration at […] (in vivo; plasma concentration): 760 ng/mL and 721 ng/mL
concentration at 0.5 h (in vivo; plasma concentration, Mean): 187 ng/mL
concentration at 1 h (in vivo; plasma concentration, Mean): 41 ng/mL
concentration at 2 h (in vivo; plasma concentration, Mean): 18.7 ng/mL
concentration at […] (in vivo; plasma concentration, Mean): 970 ng/mL and 692 ng/mL
